Reference: patent publication US20040171089A1, “High-throughput screening assay for identifying substances capable of modulating cell survival and/or proliferation” (priority 2001, published 2004)

Columns and labels:
sigma-1 sites = sigma-1 sites (Homo sapiens, UniProt Q99720); conditions: Whittemore et al 1997; read-out: inhibition constant for sigma-1 sites; cited from earlier work
[1] = test system: cerebellar granule neurones; assay: Fura-2 calcium imaging, cerebellar granule neurones; assay type: cell-based, rat; conditions: 3 μM; cerebellar granule cells
Experimental: Cerebellar granule cells were prepared from 6-7 day post natal rats as previously described (see Courtney, M. J., Lambert, J. J. and Nicholls, D. G. [1990] J. Neuroscience 10: 3873-3879).
(§1) For calcium imaging experiments cells were plated onto poly-L-lysine coated coverslips (13 mm). Single cell imaging was performed utilizing a MiraCal Imaging facility (Life Science Resources, Cambridge, U.K.) with a Nikon Diaphot-TMD inverted epifluorescence microscope equipped with a ×40 oil immersion objective and Sutter filter wheel. The imager was equipped with a Lambert intensifier 1187 (Life Sciences Resources) providing a ×30 enhancement of the fluorescent signal, thus limiting phototoxicity.
Fura-2 acetoxymethyl ester (fura-2 AM) incubations with the cells were performed at 37° C. in a medium containing (in mM): 120 NaCl, 3.5 KCl, 0.4 KH2PO4, 5 NaHCO3, 1.2 Na2SO4, 15 glucose, 1.2 MgCl2, 1 CaCl2, and 20 TES [N-tris(hydroxymethyl) methyl-2-aminoethane sulphonic acid] pH adjusted to 7.4 with NaOH. […] Cells were then illuminated alternately at 340 and 380 nm with the emitted 505 nm light being detected by a photomultiplier. […] Changes of intracellular calcium were quantified as the percentage increase of the fluorescent ratio (determined at ˜505 nm) obtained by exciting the test cells alternatively at 340 nm (optimal for calcium bound dye) and 380 nm.

MDA MB 468 cells [2] = assay: Fura-2 calcium imaging, MDA MB 468 cells; assay type: cell-based, human; conditions: for % increase of cytosolic calcium / % increase of cytosolic calcium (peak 340/380 nm fura-2 ratio): MDA 468 cells
Experimental: Human mammary carcinoma (MDA MB 468) cells were obtained from ATCC, Manassas, Va., USA; catalogue number HTB-132; cells were grown in accordance with the manufacturer's instructions.
as §1
(§2) Fura-2 acetoxymethyl ester (fura-2 AM) incubations with the cells were performed at 37° C. in a medium containing (in mM): 120 NaCl, 3.5 KCl, 0.4 KH2PO4, 5 NaHCO3, 1.2 Na2SO4, 15 glucose, 1.2 MgCl2, 1 CaCl2, and 20 TES [N-tris(hydroxymethyl) methyl-2-aminoethane sulphonic acid] pH adjusted to 7.4 with NaOH. Typically cells were incubated in 3 μM fura-2 AM for 25 min., which permitted sufficient accumulation of free fura-2 in the cell cytoplasm. Cells were then illuminated alternately at 340 and 380 nm with the emitted 505 nm light being detected by a photomultiplier. Free fura emits maximally when excited at 380 nm, whilst the calcium bound fura has a maximal emission when excited at 340 nm. Thus the ratio of emission when alternately excited at 340/380 nm is a measure of the calcium concentration in equilibrium with the chelator. Changes of intracellular calcium were quantified as the percentage increase of the fluorescent ratio (determined at ˜505 nm) obtained by exciting the test cells alternatively at 340 nm (optimal for calcium bound dye) and 380 nm.

MDA MB 468 cells [3] = assay: MTS cell viability/proliferation assay, MDA MB 468 cells; assay type: cell-based, human; conditions: 15 minute exposure then drug-free medium; at 48 hours; MTS
Experimental: This was carried out using an MTS assay (reagents from Promega Corporation, Madison Wis., USA) which is a modification of the MTT assay (as described in Jacobson et al, 1994 EMBO J Vol 13 pp1899-1910). The assay depends on conversion of the MTS tetrazolium compound to a coloured formazan product in metabolically active cells; it is therefore an assay of viable cell number. A decline in values implies cell killing as long as cell disappearance by apoptosis in untreated cell populations is absent or negligible (as with most healthy primary cell populations).
Cells were seeded in the range 1.5×10^5-1.8×10^5 cells per ml of culture medium in 96 well microtitre plates and allowed to attach in a humidifed atmosphere of 5% CO2 in air at 37 deg C. Drugs were added 18-24 hours later and cell viability/proliferation measured at time intervals up to 48-72 hours post-drug addition when the experiment was terminated. Mean (±SE) values at each time point were obtained from wells in triplicate.
Cell viability was measured as follows: 20 μl of MTS solution (Promega) was added to wells and incubated at 37 deg C. for 3 hours during which time a coloured formazan product is generated in viable cells. […] Viable cell number was then measured by reading absorbance at 490 nm in a Dynex microtitre plate reader. […]

phospholipase C = assay: GFP-PH PLCdelta 1 relocalisation (PLC activation) in MDA MB 468 cells; assay type: cell-based, human
Text: The inventors introduced a recombinant plasmid vector encoding a hybrid protein comprised of the pleckstrin homology (PH) domain of phospholipase C (PLC) delta 1 fused green fluorescent protein (GFP) (GFP-PH PLCdelta 1) into MDA MB 468 mammary carcinoma cells. A standard transfection method (Fugene-6—Roche) was used. […] Cells were maintained in DMEM with 10% fetal bovine serum at 37 deg C. in 5% CO2 before and during exposure to sigma ligands which were present at a range of concentrations. Effects on the GFP-PH PLCdelta 1 protein were studied in two ways: by time lapse microscopy (using a Leica inverted fluorescence microscope and a Hammamatsu Orca charge-coupled device camera, linked to an Improvision Open Lab image processing workstation). This enabled the time course of effects to be determined. […] Control cell populations received drug vehicle alone and were analysed at the same time points.
GFP-PH PLC delta 1—expressing MDA MB 468 cells were exposed to sigma antagonists in 1 mM and 0 mM (nominally calcium-free) buffer (as used for the calcium imaging experiments, described above) and monitored by time lapse imaging as above.

[4] = test system: human primary microvascular endothelial cells; assay: Fura-2 calcium imaging, microvascular endothelial cells; assay type: cell-based
Experimental: Human adult dermal microvascular endothelial cells (catalogue number CC-2543; cells had been characterised by tests for cell type markers: positive for acetylated LDL uptake, positive for factor VIII related antigen, negative for alpha smooth muscle actin)
as §1, §2

MCF-7 cells = assay: Fura-2 calcium imaging, MCF-7 cells; assay type: cell-based, human; conditions: 10 μM
Experimental: as §1
(§3) Fura-2 acetoxymethyl ester (fura-2 AM) incubations with the cells were performed at 37° C. in a medium containing (in mM): 120 NaCl, 3.5 KCl, 0.4 KH2PO4, 5 NaHCO3, 1.2 Na2SO4, 15 glucose, 1.2 MgCl2, 1 CaCl2, and 20 TES [N-tris(hydroxymethyl) methyl-2-aminoethane sulphonic acid] pH adjusted to 7.4 with NaOH. Typically cells were incubated in 3 μM fura-2 AM for 25 min., which permitted sufficient accumulation of free fura-2 in the cell cytoplasm. Cells were then illuminated alternately at 340 and 380 nm with the emitted 505 nm light being detected by a photomultiplier. […] Changes of intracellular calcium were quantified as the percentage increase of the fluorescent ratio (determined at ˜505 nm) obtained by exciting the test cells alternatively at 340 nm (optimal for calcium bound dye) and 380 nm.

[5] = test system: human prostate epithelial cells; assay: Fura-2 calcium imaging, prostate epithelial cells; assay type: cell-based
Experimental: Human prostate epithelial cells (catalogue number CC-2555; stain positive for cytokeratin 8,13.)
as §1, §3

[6] = 1-10 μM, microvascular endothelial cells

Sequence of sigma-1 sites (Q99720 whole entry): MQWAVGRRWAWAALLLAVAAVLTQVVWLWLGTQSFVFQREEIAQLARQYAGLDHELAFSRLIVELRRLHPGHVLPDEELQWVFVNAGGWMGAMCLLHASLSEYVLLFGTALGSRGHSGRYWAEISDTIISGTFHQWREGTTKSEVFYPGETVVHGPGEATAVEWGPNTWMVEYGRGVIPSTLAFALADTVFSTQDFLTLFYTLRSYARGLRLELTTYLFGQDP

Question: What does the source list for N=C(Nc1ccc(I)cc1)NC1C2CC3CC(C2)CC1C3 (stereo not drawn) [IPAG, 1-(4-iodophenyl)-3-(2-adamantyl)guanidine]?
Answer: Ki (sigma-1 sites): ~2.8 nM; % increase of cytosolic calcium (peak 340/380 nm fura-2 ratio) [1]: 20±2%; % increase of cytosolic calcium (MDA MB 468 cells [2]; 1 μM, 100 μM extracellular calcium): 40±14%; % increase of cytosolic calcium (MDA MB 468 cells [2]; 1 μM, 1 mM extracellular calcium (FIG. 3a experiment)): 157±10%; % increase of cytosolic calcium (peak 340/380 nm fura-2 ratio) (MDA MB 468 cells [2]; 1 μM): 54±7%; % increase of cytosolic calcium (MDA MB 468 cells [2]; 1 μM, absence of extracellular calcium): 1±0.4%; % increase of cytosolic calcium (peak 340/380 nm fura-2 ratio) (MDA MB 468 cells [2]; 3 μM): 112±8%; % increase of cytosolic calcium (MDA MB 468 cells [2]; 10 μM, 100 μM extracellular calcium): 237±12%; time of decline of intracellular calcium to baseline (MDA MB 468 cells [2]; 10 μM, 0.1 mM extracellular calcium, MDA MB 468 cells): ≤ 10 min; % increase of cytosolic calcium (MDA MB 468 cells [2]; 10 μM, 1 mM extracellular calcium (FIG. 3a experiment)): 230±12%; time calcium elevation remains close to peak levels (MDA MB 468 cells [2]; 10 μM, 1 mM extracellular calcium, MDA MB 468 cells): at least 30 minutes; % increase of cytosolic calcium (peak 340/380 nm fura-2 ratio) (MDA MB 468 cells [2]; 10 μM): 125±7%; time to peak effect on cytosolic calcium (MDA MB 468 cells [2]; 10 μM, MDA MB 468 cells): ≤ 5 min; % increase of cytosolic calcium (MDA MB 468 cells [2]; 10 μM, absence of extracellular calcium): 4±2%; effect on cytosolic calcium levels (in words) (MDA MB 468 cells [2]; MDA MB 468 cells, FIG. 2a: IPAG 1-10 μM, rimcazole 10-30 μM, (+)-SKF 10,047 10 μM, (+)-pentazocine 10-30 μM, ibogaine 10-50 μM): increase cytosolic calcium levels; viable cell number less than control values (MDA MB 468 cells [3]): 20-30%; relocalisation of GFP-PH PLC delta 1 from membrane to cytosol (phospholipase C; 100 μM, approximately 10 minutes, DMEM with 10% fetal bovine serum): pronounced relocalisation; localisation of GFP-PH PLC delta 1 (phospholipase C; nominally calcium-free buffer (0 mM calcium)): remained membrane-localised; % increase of cytosolic calcium (peak 340/380 nm fura-2 ratio) ([4]; 1 μM, microvascular endothelial cells): 119±13%; initial calcium rise above baseline, occurring within 1 minute ([4]; 10 μM, 1 mM, 0.1 mM and nominally calcium free medium): > 100%; % increase of cytosolic calcium (peak 340/380 nm fura-2 ratio) ([4]; 10 μM, microvascular endothelial cells): 293±14%; time to evident increase of cytosolic calcium after drug application [4, 6]: 5 to 10 s; time to peak effect on cytosolic calcium [4, 6]: ≤ 3 min; time by which calcium levels have returned to baseline (MCF-7 cells): ≤ 30 min; time to peak effect on cytosolic calcium (MCF-7 cells): ≤ 5 min; % increase of cytosolic calcium (peak 340/380 nm fura-2 ratio) ([5]; 1 μM): 10±5%; % increase of cytosolic calcium (peak 340/380 nm fura-2 ratio) ([5]; 10 μM): 25±5%
